Results from patent US20080227724A1, “Anti-Inflammatory Agents” (CAMBRIDGE UNIVERSITY TECHNICAL SERVICES LIMITED, priority 2003, published 2008).
Bridge positions count the residues as written; N and C are the ends. Square brackets hold non-standard residues; d marks the D form. Ends that are not written are not given here.

How the values were obtained:
[1] = system: chemokine-induced migration; assay: Chemokine-induced leukocyte migration in vitro (prior art); format: cell-based; conditions: parental molecule (S)-3-(undec-10-enoyl)-aminoglutarimide
[2] = format: in vitro ADME, human
Source text: As an approach to identifying such stable analogs, various derivatives of (S)-3-(undec-10-enoyl)-aminoglutarimide have been tested for their stability in serum.

[3] = system: TNF-alpha; assay: Sub-lethal LPS-induced endotoxemia model, circulating TNF-alpha; format: in vivo, CD-1 mice; conditions: for block of TNF-alpha stimulation: at a suitable dose
Description: The anti-inflammatory activity of the compounds of the invention was determined in vivo using a sub-lethal LPS-induced endotoxemia model. Adult male CD-1 mice (n=6 per group) were pretreated with various agents (vehicle, compounds of the invention or positive control agents such as the steroid dexamethasone) by sub-cutaneous injection 30 minutes prior to an acute inflammatory challenge with 750 μg of bacterial lipopolysaccharide (from E. Coli 0111:B4; Sigma catalog #L-4130) via the intraperitoneal route. The vehicle in each case was 0.6% DMSO, 1% carboxymethyl cellulose, or alternatively 1% carboxymethylcellulose alone. For some of the compounds, this formulation results in a finely divided suspension or slurry rather than a clear solution. Two hours after LPS challenge, the animals were sacrificed and blood was drawn by cardiac puncture. The level of the pro-inflammatory cytokine TNF-alpha was determined using the Quantikine M ELISA (R&D Systems) for murine TNF-alpha, and reported as the mean ±standard error for each group.
By 2 hours after the LPS challenge, this had increased by more than 1,000 fold to an average of 20,000 pg/ml, representing a sensitive index of inflammatory activation. Pre-treatment with known anti-inflammatory drugs (such as the steroid dexamethasone) reduced the stimulation of TNF-alpha by up to 85-95%, depending on the dose given.
In a separate series of experiments, the compounds of the invention were administered to animals as an oral suspension, formulated in the same way as for the sub-cutaneous dosing experiments, followed 1 hour later with the LPS challenge exactly as described above. […] All five compounds were maximally active at a dose below 30 mg/kg.

[4] = system: MCP-1 induced THP-1 cell migration; assay: Inhibition of MCP-1 induced leukocyte migration (transwell migration assay); format: cell-based, human; conditions: inhibition of MCP-1 induced THP-1 cell migration, dose-response curves
Description: In principle, this assay consists of two chambers separated by a porous membrane. The chemoattractant is placed in the lower compartment and the cells are placed in the upper compartment. After incubation for a period at 37° C. the cells move towards the chemoattractant, and the number of cells in the lower compartment is proportional to the chemoattractant activity (relative to a series of controls). The THP-1 cell line (European Cell culture Collection) were used as the leukocyte cell population. The following procedure is used for testing the invention compounds for MCP-1 induced leukocyte migration: First, the cell suspension to be placed in the upper compartment is prepared. The THP-1 cells are pelleted by centrifugation (770×g; 4 mins) and washed with Geys Balanced Salt Solution with 1 mg/ml BSA (GBSS+BSA). This wash is then repeated, and the cells repelleted before being resuspended in a small volume of GBSS+BSA for counting, for example using a standard haemocytometer. The volume of GBSS+BSA is then adjusted depending on the number of cells present so that the cells are at final density of 4.45×10^6 cells per ml of GBSS+BSA. […] The number of cells migrated into the lower chamber under each condition can then be determined by a number of methods, including direct counting, labelling with fluorescent or radioactive markers or through the use of a vital dye. […]

[5] = cited from earlier work
[6] = oral suspension 1 hour before LPS
[7] = sub-cutaneous injection 30 minutes prior to LPS

Row | Compound | block of TNF-alpha stimulation [3, 6] | block of TNF-alpha stimulation [3, 7] | other results
1 | C=CCCCCCCCCC(=O)[C@@H]1CCCNC1=O [(S)-3-(undec-10-enoyl)-tetrahydropyridin-2-one] |  |  | potency compared with the parental molecule [1]: considerably reduced potency; time completely stable in human serum ([2]; human, 7 days): at least 7 days
2 | C=CCCCCCCCCC(=O)N[C@H]1CCC(=O)NC1=O [NR58,4, (S)-3-(undec-10-enoyl)-aminoglutarimide] |  |  | stability of the aminoglutarimide ring in serum [2]: susceptible to enzymatic ring opening in serum
3 | C[C@@H]1C[C@H]2[C@@H]3CCC4=CC(=O)C=C[C@]4(C)[C@@]3(F)[C@@H](O)C[C@]2(C)[C@@]1(O)C(=O)CO [dexamethasone, reference compound] |  |  | reduction of the stimulation of TNF-alpha ([3]; pre-treatment, 2 hours after LPS challenge, depending on the dose given): 85-95%
4 | (R)-3-hexadecanoylamino-caprolactam [Example 7] | able to block TNF-alpha stimulation | block TNF-alpha stimulation to a similar extent to dexamethasone | 
5 | (S)-3-(2′,2′-Dimethyl-propionyl)amino-caprolactam [Example 20] | able to block TNF-alpha stimulation | block TNF-alpha stimulation to a similar extent to dexamethasone | 
6 | (S)-3-(2′,2′-dimethyl-dodecanoyl)amino-caprolactam [Example 12] | able to block TNF-alpha stimulation | block TNF-alpha stimulation to a similar extent to dexamethasone | (S)-enantiomer more active than the (R)-enantiomer [4]: 10-50 fold
7 | (S)-(Z)-3-(hexadec-9-enoyl)amino-caprolactam [Example 9] | able to block TNF-alpha stimulation | block TNF-alpha stimulation to a similar extent to dexamethasone | 
8 | (S)-(Z)-3-(octadec-9-enoyl)amino-caprolactam [Example 10] | able to block TNF-alpha stimulation | block TNF-alpha stimulation to a similar extent to dexamethasone | 
9 | c(DCys-DGln-DIle-DTrp-DLys-DGln-DLys-DPro-DAsp-DLeu-DCys)-NH2 ([dC][dQ][dI][dW][dK][dQ][dK][dP][dD][dL][dC]-NH2; disulfide 1-11 (inferred)) [NR58-3.14.3] |  |  | half-life period of clearance from blood plasma ([5]; after intravenous injection): less than 30 minutes; oral bioavailability ([5]; in vivo, po): not orally bioavailable
